# Measured values reported in the supplement of paper PMC10307832.
# Compound: COc1cc(Nc2ncc(F)c(Nc3ccc4c(n3)NC(=O)C(C)(C)O4)n2)cc(OC)c1OC [R406] + CC1(C)CCC(c2ccc(Cl)cc2)=C(CN2CCN(c3ccc(C(=O)NS(=O)(=O)c4ccc(N[C@H](CCN5CCOCC5)CSc5ccccc5)c(S(=O)(=O)C(F)(F)F)c4)cc3)CC2)C1 [Navitoclax] (partner 0.5 µM)
# Assay: relative viability (nuclei count vs DMSO), 5 days (fraction); higher = more cells survive
# Details: first compound 0.08 µM
# Method in brief: (§1)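 Lung cancer cell lines in 1536-well plates were dosed by pin tool the day after seeding, either with one drug alone or with a fixed anchor-drug dose plus five library-drug doses (not always all listed) in √10 steps. After 5 days, cells were fixed and their nuclei stained in one step (final 0.05% Triton X-100, 1% formaldehyde, 1 ug/ml Hoechst), then counted on 4× images. Relative viability is the nuclei count in treated wells divided by that in vehicle wells. Values are medians of duplicate plates.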
row,Cell Line,relative viability
1,NCI-H2170,0.524
2,H3255,0.488
3,COR-L23,0.951
4,COR-L 105,0.858
5,IA-LM,0.799
6,LOU-NH91,0.715
7,ChaGo-K-1,0.969
8,NCI-H1793,0.336
9,NCI-H2405,0.823
10,HOP-62,0.937
11,HCC-44,0.915
12,A549,0.932
13,SK-MES-1,1.22
14,LU99A,0.761
15,NCI-H727,0.39
16,NCI-H1299,1.01
17,NCI-H1792,0.536

# Same assay, conditions: first compound 0.253 µM
row,Cell Line,relative viability
1,NCI-H838,1.23
2,NCI-H1650,1.15
3,EBC-1,0.403
4,NCI-H1703,1.05
5,NCI-H1993,0.98
6,NCI-H441,0.584
7,PC-14,1.05
8,NCI-H596,1.04
9,NCI-H2126,0.83
10,EMC-BAC-2,1.38
11,NCI-H2085,1.16
12,Calu-6,0.809
13,HCC-366,1.18
14,NCI-H1666,0.879
15,NCI-H647,1.29
16,LK-2,1.06
17,NCI-H2087,0.882

row,Cell Line,relative viability
1,NCI-H2170,0.54
2,H3255,0.731
3,COR-L23,1.04
4,COR-L 105,0.755
5,IA-LM,1.03
6,LOU-NH91,0.701
7,ChaGo-K-1,1.16
8,NCI-H1793,0.442
9,NCI-H2405,0.844
10,HOP-62,0.985
11,HCC-44,1.04
12,A549,1.2
13,SK-MES-1,1.18
14,LU99A,0.72
15,NCI-H727,0.44
16,NCI-H1299,1.06
17,NCI-H1792,0.804

# Same assay, conditions: first compound 0.8 µM
row,Cell Line,relative viability
1,NCI-H838,1.34
2,NCI-H1650,1.5
3,EBC-1,0.422
4,NCI-H1703,1.23
5,NCI-H1993,0.848
6,NCI-H441,0.818
7,PC-14,1.04
8,NCI-H596,1.16
9,NCI-H2126,0.829
10,EMC-BAC-2,1.31
11,NCI-H2085,1.28
12,Calu-6,0.949
13,HCC-366,1.16
14,NCI-H1666,0.932
15,NCI-H647,1.18
16,LK-2,0.889
17,NCI-H2087,1.05

row,Cell Line,relative viability
1,NCI-H2170,0.662
2,H3255,0.541
3,COR-L23,1.1
4,COR-L 105,1.02
5,IA-LM,0.946
6,LOU-NH91,0.752
7,ChaGo-K-1,1.01
8,NCI-H1793,0.398
9,NCI-H2405,0.928
10,HOP-62,1.11
11,HCC-44,1.05
12,A549,1.26
13,SK-MES-1,1.31
14,LU99A,1.11
15,NCI-H727,0.46
16,NCI-H1299,1.05
17,NCI-H1792,0.89

# Same assay, conditions: first compound 2.53 µM
row,Cell Line,relative viability
1,NCI-H838,0.802
2,NCI-H1650,1.24
3,EBC-1,0.317
4,NCI-H1703,0.189
5,NCI-H1993,0.78
6,PC-14,0.984
7,NCI-H596,0.72
8,NCI-H2126,0.8
9,EMC-BAC-2,1.12
10,NCI-H2085,1.01
11,Calu-6,0.579
12,NCI-H1666,0.941
13,NCI-H647,0.562
14,LK-2,0.527
15,NCI-H2087,1.06
16,NCI-H2170,0.294

row,Cell Line,relative viability
1,H3255,0.312
2,COR-L23,0.836
3,COR-L 105,0.805
4,IA-LM,1.02
5,LOU-NH91,0.318
6,ChaGo-K-1,0.947
7,NCI-H1793,0.206
8,NCI-H2405,0.691
9,HOP-62,1.1
10,HCC-44,1.04
11,A549,1.31
12,SK-MES-1,0.817
13,NCI-H727,0.381
14,NCI-H1299,1.11
15,NCI-H1792,0.6

# Same assay, conditions: first compound 8 µM
row,Cell Line,relative viability
1,NCI-H838,0.305
2,NCI-H1650,0.747
3,EBC-1,0.189
4,NCI-H1703,0.149
5,NCI-H1993,0.7
6,NCI-H441,0.446
7,PC-14,0.836
8,NCI-H596,0.115
9,NCI-H2126,0.64
10,EMC-BAC-2,0.917
11,NCI-H2085,0.667
12,Calu-6,0.316
13,HCC-366,0.663
14,NCI-H1666,0.413
15,NCI-H647,0.467
16,LK-2,0.455
17,NCI-H2087,0.694

row,Cell Line,relative viability
1,NCI-H2170,0.516
2,H3255,0.14
3,COR-L23,0.451
4,COR-L 105,0.558
5,IA-LM,0.843
6,LOU-NH91,0.313
7,ChaGo-K-1,0.44
8,NCI-H1793,0.17
9,NCI-H2405,0.156
10,HOP-62,1.06
11,HCC-44,0.316
12,A549,0.675
13,SK-MES-1,0.678
14,LU99A,0.229
15,NCI-H727,0.325
16,NCI-H1299,0.995
17,NCI-H1792,0.582

# Compound: O=C(/C=C/c1cccnc1)NCCCCC1CCN(C(=O)c2ccccc2)CC1 [Daporinad] + COc1cc2c(Oc3ccc(NC(=O)C4(C(=O)Nc5ccc(F)cc5)CC4)cc3F)ccnc2cc1OCCCN1CCOCC1 [Foretinib] (partner 0.25 µM)
# Assay: as above
# Details: first compound 0.0005 µM
# Method in brief: as §1
row,Cell Line,relative viability
1,NCI-H2342,1.09
2,NCI-H838,1.06
